The target in the test is T1, B-raf kinase (Homo sapiens, UniProt P15056).
T1 construct: made in house; host or cells: Sf9 insect cells (baculovirus)
Kind of test: in vitro Raf Kinase Assay (33P-phosphate incorporation into GST-kdMEK). Conditions: human recombinant Raf protein, substrate GST-kdMEK, 33P-ATP, 25° C., 90 minutes; read-out: IC50 (concentration of test compound required to inhibit 50% of the B-raf kinase activity). It counts as biochemical. On the procedure: Activity of human recombinant Raf protein was assessed in vitro by assay of the incorporation of radiolabelled phosphate to recombinant MAP kinase (MEK), a known physiologic substrate of Raf. Catalytically active human recombinant Raf protein was obtained by purification from sf9 insect cells infected with a human Raf recombinant baculovirus expression vector.
Method: Standard assay conditions of Raf catalytic activity utilized […] of GST-kdMBK, 10 µM ATP and 2 uCi ^33P-ATP, 50 mM MOPS, 0.1 mM EDTA, 0.1M sucrose, 10 mM MgCl2 plus 0.1% dimethylsulphoxide (containing compound where appropriate) in a total reaction volume of 30 ul. Reactions were incubated at 25° C. for 90 minutes and reactions terminated by addition of EDTA to a final concentration of […]. 10 ul of reaction was spotted to P30 phosphocellulose paper and air dried. Following four washes in ice cold 10% trichloroacetic acid, 0.5% phosphoric acid, papers were air dried prior to addition of liquid scintillant and measurement of radioactivity in a scintillation counter. The % inhibition of the B-raf kinase activity is calculated and plotted in order to determine the concentration of test compound required to inhibit 50% of the B-raf kinase activity (IC50).

Molecules are shown by their SMILES.

T1 sequence (P15056 whole entry): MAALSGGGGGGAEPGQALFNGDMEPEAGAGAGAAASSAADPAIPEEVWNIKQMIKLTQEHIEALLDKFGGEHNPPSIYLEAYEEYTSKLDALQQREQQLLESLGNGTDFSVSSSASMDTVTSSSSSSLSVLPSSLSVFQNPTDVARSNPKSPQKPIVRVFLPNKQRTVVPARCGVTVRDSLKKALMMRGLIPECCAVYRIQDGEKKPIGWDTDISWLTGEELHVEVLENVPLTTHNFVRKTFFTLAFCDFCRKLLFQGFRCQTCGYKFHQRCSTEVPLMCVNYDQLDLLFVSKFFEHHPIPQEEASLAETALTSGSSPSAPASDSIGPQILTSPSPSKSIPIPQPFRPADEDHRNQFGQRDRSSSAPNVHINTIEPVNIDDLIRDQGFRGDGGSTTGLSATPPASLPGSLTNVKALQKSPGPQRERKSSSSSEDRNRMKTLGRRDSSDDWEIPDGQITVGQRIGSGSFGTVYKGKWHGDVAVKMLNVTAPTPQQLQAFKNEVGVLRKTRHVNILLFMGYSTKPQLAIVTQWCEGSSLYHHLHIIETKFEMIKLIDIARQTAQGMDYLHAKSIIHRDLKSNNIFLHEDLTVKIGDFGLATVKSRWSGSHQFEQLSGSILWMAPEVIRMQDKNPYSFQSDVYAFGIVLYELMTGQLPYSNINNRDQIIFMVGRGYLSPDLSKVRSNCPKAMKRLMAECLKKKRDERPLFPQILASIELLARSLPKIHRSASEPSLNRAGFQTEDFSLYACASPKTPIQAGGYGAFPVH

Regarding `CC(C)(C)OC(=O)c1cc(Oc2ccc(NC(=O)Nc3ccc(Cl)c(C(F)(F)F)c3)cc2)ccn1` [Compound 3, tert-butyl 4-(4-(3-(4-chloro-3-(trifluoromethyl)phenyl)ureido)phenoxy)picolinate], the IC50 was below 10000 nM.

In the case of `O=C(Nc1ccc(Oc2ccnc(C(=O)O)c2)cc1)Nc1ccc(Cl)c(C(F)(F)F)c1` [Compound 4, 4-(4-(3-(4-chloro-3-(trifluoromethyl)phenyl)ureido)phenoxy)picolinic acid], the IC50 was below 10000 nM.

With `CONC(=O)c1cc(Oc2ccc(NC(=O)Nc3ccc(Cl)c(C(F)(F)F)c3)cc2)ccn1` [Compound 5, 4-(4-(3-(4-chloro-3-(trifluoromethyl)phenyl)ureido)phenoxy)-N-methoxypicolinamide], the IC50 was below 1000 nM.

Consider `CCCONC(=O)c1cc(Oc2ccc(NC(=O)Nc3ccc(Cl)c(C(F)(F)F)c3)cc2)ccn1` [Compound 6, 4-(4-(3-(4-chloro-3-(trifluoromethyl)phenyl)urei-do)phenoxy)-N-propoxypicolinamide], for which the IC50 was below 1000 nM.

Consider `CCONC(=O)c1cc(Oc2ccc(NC(=O)Nc3ccc(Cl)c(C(F)(F)F)c3)cc2)ccn1` [Compound 7, 4-(4-(3-(4-chloro-3-(trifluoromethyl)phenyl)urei-do)phenoxy)-N-ethoxypicolinamide], for which the IC50 is below 1000 nM.

For the compound `CCN(CC)CCONC(=O)c1cc(Oc2ccc(NC(=O)Nc3ccc(Cl)c(C(F)(F)F)c3)cc2)ccn1` [Compound 8, 4-(4-(3-(4-chloro-3-(trifluoromethyl)phenyl)urei-do)phenoxy)-N-(2-(diethylamino)ethoxy)picolinamide], the IC50 was below 1000 nM.

Consider `CN(C)CCONC(=O)c1cc(Oc2ccc(NC(=O)Nc3ccc(Cl)c(C(F)(F)F)c3)cc2)ccn1` [Compound 9, 4-(4-(3-(4-chloro-3-(trifluoromethyl)phenyl)urei-do)phenoxy)-N-(2-(dimethylamino)ethoxy)picolinamide], for which the IC50 was below 1000 nM.

For `CCN(CC)C(=O)CONC(=O)c1cc(Oc2ccc(NC(=O)Nc3ccc(Cl)c(C(F)(F)F)c3)cc2)ccn1` [Compound 10, 4-(4-(3-(4-chloro-3-(trifluoromethyl)phenyl)urei-do)phenoxy)-N-(2-(diethylamino)-2-oxoethoxy)picolinamide], the IC50 is below 1000 nM.

As for `CN(C)C(=O)CONC(=O)c1cc(Oc2ccc(NC(=O)Nc3ccc(Cl)c(C(F)(F)F)c3)cc2)ccn1` [Compound 11, 4-(4-(3-(4-chloro-3-(trifluoromethyl)phenyl)urei-do)phenoxy)-N-(2-(dimethylamino)-2-oxoethoxy)picolinamide], the IC50 was below 1000 nM.

As for `CONC(=O)c1cc(Oc2ccc(NC(=O)Nc3ccc(Cl)cc3)cc2)ccn1` [Compound 12, 4-(4-(3-(4-chlorophenyl)ureido)phenoxy)-N-methoxypicolinamide], the IC50 is below 1000 nM.

For the compound `CONC(=O)c1cc(Oc2ccc(NC(=O)Nc3cccc(C(F)(F)F)c3)cc2)ccn1` [Compound 13, N-methoxy-4-(4-(3-(3-(trifluoromethyl)phenyl)urei-do)phenoxy)picolinamide], the IC50 was below 1000 nM.

For the compound `CONC(=O)c1cc(Oc2ccc(NC(=O)Nc3ccc(Cl)c(Cl)c3)cc2)ccn1` [Compound 14, 4-(4-(3-(3,4-dichlorophenyl)ureido)phenoxy)-N-methoxypicolinamide], the IC50 is below 1000 nM.

On to `CONC(=O)c1cc(Oc2ccc(NC(=O)Nc3ccccc3)cc2)ccn1` [Compound 15, N-methoxy-4-(4-(3-phenylureido)phenoxy)picolinamide], for which the IC50 is below 1000 nM.

For `CONC(=O)c1cc(Oc2ccc(NC(=O)Nc3ccc(OC)c(OC)c3)cc2)ccn1` [Compound 16, 4-(4-(3-(3,4-dimethoxyphenyl)ureido)phenoxy)-N-methoxypicolinamide], the IC50 was below 1000 nM.

With `O=C(Nc1ccc(Oc2ccnc(C(=O)NOC3CCCC3)c2)cc1)Nc1ccc(Cl)c(Cl)c1` [Compound 17, N-(cyclopentyloxy)-4-(4-(3-(3,4-dichloro-phenyl)ureido)phenoxy)picolinamide], the IC50 was below 1000 nM.

As for `O=C(Nc1ccccc1)Nc1ccc(Oc2ccnc(C(=O)NOC3CCCCC3)c2)cc1` [Compound 18, N-(cyclohexyloxy)-4-(4-(3-phenylureido)phenoxy)picolinamide], the IC50 is below 1000 nM.

For `COc1ccc(NC(=O)Nc2ccc(Oc3ccnc(C(=O)NOC4CCC4)c3)cc2)cc1OC` [Compound 19, N-cyclobutoxy-4-(4-(3-(3,4-dimethoxyphenyl)urei-do)phenoxy)picolinamide], the IC50 is below 1000 nM.

With `CCNC(=O)c1cc(Oc2ccc(NC(=O)c3ccc(Cl)cc3)cc2)ccn1` [Compound 20, 4-(4-(4-chloro-benzamido)phenoxy)-N-ethylpicolinamide], the IC50 was below 10000 nM.

For the compound `CCNC(=O)c1cc(Oc2ccc(NC(=O)c3ccc(Cl)c(Cl)c3)cc2)ccn1` [Compound 21, 4-(4-(3,4-dichlorobenzamido)phenoxy)-N-ethylpicolinamide], the IC50 was below 10000 nM.

Turning to `O=C(Nc1ccc(Oc2cc(C(=O)NCCO)ncn2)cc1)Nc1ccc(Cl)c(C(F)(F)F)c1` [Compound 22, 6-(4-(3-(4-chloro-3-(trifluoro-methyl)phenyl)ureido)phenoxy)-N-(2-hydroxyethyl)pyrimidine-4-carboxamide], the IC50 is below 1000 nM.

Turning to `CNC(=O)c1cc(Oc2ccc(NC(=O)Nc3ccc(Cl)c(C(F)(F)F)c3)cc2)ncn1` [Compound 23, 6-(4-(3-(4-chloro-3-(trifluoro-methyl)phenyl)ureido)phenoxy)-N-methylpyrimidine-4-carboxamide], the IC50 is below 1000 nM.

With `CNC(=O)c1cc(Oc2ccc(NC(=O)Nc3ccc(Cl)cc3)cc2)ncn1` [Compound 24, 6-(4-(3-(4-chlorophenyl)ureido)phenoxy)-N-methylpyrimidine-4-carboxamide], the IC50 was below 1000 nM.

For the compound `CCONC(=O)c1cc(Oc2ccc(NC(=O)Nc3ccc(Cl)c(C(F)(F)F)c3)cc2)ncn1` [Compound 25, 6-(4-(3-(4-chloro-3-(trifluoro-methyl)phenyl)ureido)phenoxy)-N-ethoxypyrimidine-4-carboxamide], the IC50 was below 1000 nM.

As to `CONC(=O)c1cc(Oc2ccc(NC(=O)Nc3ccc(Cl)c(C(F)(F)F)c3)cc2)ncn1` [Compound 26, 6-(4-(3-(4-chloro-3-(trifluoro-methyl)phenyl)ureido)phenoxy)-N-methoxypyrimidine-4-carboxamide], the IC50 was below 1000 nM.

As to `CN(C)CCNC(=O)c1cc(Oc2ccc(NC(=O)Nc3ccc(Cl)c(C(F)(F)F)c3)cc2)ncn1` [Compound 27, 6-(4-(3-(4-chloro-3-(trifluoro-methyl)phenyl)ureido)phenoxy)-N-(2-(dimethylamino)ethyl)pyrimidine-4-carboxamide], the IC50 was below 1000 nM.

With `CNC(=O)c1ncnc(Oc2ccc(NC(=O)Nc3ccc(Cl)c(C(F)(F)F)c3)cc2)n1` [Compound 28, 4-(4-(3-(4-chloro-3-(trifluoro-methyl)phenyl)ureido)phenoxy)-N-methyl-1,3,5-triazine-2-carboxamide], the IC50 was below 1000 nM.

Values taken from patent publication US20090012091A1, “Oximide derivatives and their therapeutical application” (KinaGen, Inc., priority 2007, published 2009).
